Assay results as given in ChEMBL document CHEMBL5321216, “Discovery of bipyridine amide derivatives targeting pRXRα-PLK1 interaction for anticancer therapy” (Eur J Med Chem, 2023).
Calls of active or inactive are those of the source. No cut-off for these calls is given here.

How the values were obtained:
[1] = molecular target: T1, Retinoic acid receptor RXR-alpha (Homo sapiens, UniProt P19793); assay: Binding affinity to RXRalpha LBD (unknown origin) assessed as increase in response unit by measuring dissociation constant by SPR analysis
T1 sequence (P19793 whole entry): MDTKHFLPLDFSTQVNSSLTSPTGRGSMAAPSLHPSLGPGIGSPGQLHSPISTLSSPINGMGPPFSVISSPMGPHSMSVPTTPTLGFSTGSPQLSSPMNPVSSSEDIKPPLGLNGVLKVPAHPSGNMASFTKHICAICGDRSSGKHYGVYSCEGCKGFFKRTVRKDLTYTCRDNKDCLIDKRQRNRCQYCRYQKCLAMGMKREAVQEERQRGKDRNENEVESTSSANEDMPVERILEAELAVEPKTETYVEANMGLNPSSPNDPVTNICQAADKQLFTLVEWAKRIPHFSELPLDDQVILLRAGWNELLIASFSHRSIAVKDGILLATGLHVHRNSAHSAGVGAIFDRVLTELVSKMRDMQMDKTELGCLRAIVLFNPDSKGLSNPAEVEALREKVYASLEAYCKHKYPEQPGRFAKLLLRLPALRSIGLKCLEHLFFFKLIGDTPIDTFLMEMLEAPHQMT

MDA-MB-231 [2] = assay: Induction of apoptosis in human MDA-MB-231 cells assessed as late apoptotic cells at 62.5 nM incubated for 24 hrs by annexin V-FITC/PI staining based flow cytometry analysis (reference value: 5.93%); assay type: functional
[3] = Toxicity in BALB/c mouse xenografted with human MDA-MB-231 cells assessed as liver damage at 25 mg/kg/day, ip administered for 15 days by H and E staining based analysis; assay type: organism-based; settings: in vivo, 360 h, time 15 day
A549 [4] = assay: Induction of cell cycle arrest in human A549 cells assessed as accumulation of cells at G1 phase at 15.625 nM incubated for 12 hrs by flow cytometry analysis (reference value: 59.57%); assay type: functional; settings: 0.01562 µM
A549 [5] = assay: Induction of apoptosis in human A549 cells assessed as live cells at 125 nM incubated for 24 hrs by annexin V-FITC/PI staining based flow cytometry analysis (reference value: 93.2%); assay type: functional
[6] = Toxicity in BALB/c mouse xenografted with human MDA-MB-231 cells assessed as heart damage at 25 mg/kg/day, ip administered for 15 days by H and E staining based analysis; assay type: organism-based; settings: in vivo, 360 h, time 15 day
A549 [7] = assay: Induction of cell cycle arrest in human A549 cells assessed as accumulation of cells at S phase at 15.625 nM incubated for 12 hrs by flow cytometry analysis (reference value: 31.81%); assay type: functional; settings: 0.01562 µM
A549 [8] = assay: Induction of cell cycle arrest in human A549 cells assessed as accumulation of cells at G2 phase at 125 nM incubated for 12 hrs by flow cytometry analysis (reference value: 8.62%); assay type: functional
MDA-MB-231 [9] = assay: Downregulation of RXRalpha protein level in human MDA-MB-231 cells at 125 nM measured after 1 to 24 hrs by Western blot analysis; assay type: functional, cell-based; settings: time 1-24 hrs
A549 [10] = assay: Antiproliferative activity against wild type human A549 cells assessed as inhibition of cell growth incubated for 72 hrs by MTT assay; assay type: functional, cell-based; settings: A549, 72 h
A549 [11] = assay: Induction of cell cycle arrest in human A549 cells assessed as accumulation of cells at S phase at 31.25 nM incubated for 12 hrs by flow cytometry analysis (reference value: 31.81%); assay type: functional
A549 [12] = assay: Induction of cell cycle arrest in human A549 cells assessed as accumulation of cells at G2 phase at 31.25 nM incubated for 12 hrs by flow cytometry analysis (reference value: 8.62%); assay type: functional
MDA-MB-231 [13] = assay: Induction of apoptosis in human MDA-MB-231 cells assessed as late apoptotic cells at 125 nM incubated for 24 hrs by annexin V-FITC/PI staining based flow cytometry analysis (reference value: 5.93%); assay type: functional
MDA-MB-231 [14] = assay: Induction of cell cycle arrest in human MDA-MB-231 cells assessed as accumulation of cells at G1 phase at 62.5 nM incubated for 12 hrs by flow cytometry analysis (reference value: 43.2%); assay type: functional
[15] = Cmax in Sprague-Dawley rat at 25 mg/kg, ip measured for 48 hrs by LC-MS/MS analysis; assay type: ADME, organism-based; design: time 48 hrs, dose 25 mg/kg, route ip; settings: in vivo
MDA-MB-231 [16] = assay: Antitumor activity against human MDA-MB-231 cells xenografted in BALB/c nude mouse assessed as inhibition of tumor growth by measuring mitotic arrest at 12.5 to 25 mg/kg/day, ip administered for 15 days; assay type: functional, organism-based; settings: dose 12.5-25 mg/kg/day, time 15.0 day
A549 [17] = assay: Induction of cell cycle arrest in human A549 cells assessed as accumulation of cells at S phase at 125 nM incubated for 12 hrs by flow cytometry analysis (reference value: 31.81%); assay type: functional
MDA-MB-231 [18] = assay: Induction of apoptosis in human MDA-MB-231 cells assessed as reduction in Bcl-2 protein expression measured after 24 hrs by Western blot analysis; assay type: functional, cell-based; settings: dose 7.8-500 nM
[19] = Toxicity in BALB/c mouse xenografted with human MDA-MB-231 cells assessed as spleen damage at 25 mg/kg/day, ip administered for 15 days by H and E staining based analysis; assay type: organism-based; settings: in vivo, 360 h, time 15 day
MDA-MB-231 [20] = assay: Induction of mitotic arrest in human MDA-MB-231 cells assessed as disordered spindle formation at 62.5 nM incubated for 12 hrs by alpha-tubulin/DAPI staining based confocal microscopic analysis; assay type: functional, cell-based
A549 [21] = assay: Induction of apoptosis in human A549 cells assessed as early apoptotic cells at 125 nM incubated for 24 hrs by annexin V-FITC/PI staining based flow cytometry analysis (reference value: 0.78%); assay type: functional
[22] = Apparent volume of distribution during terminal phase in Sprague-Dawley rat at 25 mg/kg, ip measured for 48 hrs by LC-MS/MS analysis; assay type: ADME, organism-based; settings: in vivo, read-out: Vz/F
A549 [23] = assay: Induction of cell cycle arrest in human A549 cells assessed as accumulation of cells at G2 phase at 62.5 nM incubated for 12 hrs by flow cytometry analysis (reference value: 8.62%); assay type: functional
MDA-MB-231 [24] = assay: Induction of cell cycle arrest in human MDA-MB-231 cells assessed as accumulation of cells at S phase at 31.25 nM incubated for 12 hrs by flow cytometry analysis (reference value: 40.89%); assay type: functional
A549 [25] = assay: Induction of apoptosis in human A549 cells assessed as dead cells at 125 nM incubated for 24 hrs by annexin V-FITC/PI staining based flow cytometry analysis (reference value: 0.75%); assay type: functional
HCC1937 = assay: Antiproliferative activity against human HCC1937 cells assessed as inhibition of cell proliferation incubated for 72 hrs by MTT assay; assay type: functional, cell-based; settings: HCC1937, 72 h
[26] = molecular target: T2, Retinoic acid receptor RXR-alpha (Homo sapiens) (UniProt P19793); assay: Antagonist activity at RXRalpha (unknown origin) transfected in human HeLa cells assessed as inhibition of CD3254- induced receptor transactivation by measuring remaining luciferase activity at 1 uM incubated for 24 hrs by dual luciferase reporter assay; assay type: cell-based; settings: filed as antagonist
T2 sequence (whole entry): T1 sequence (P19793 whole entry)

MDA-MB-231 [27] = assay: Induction of apoptosis in human MDA-MB-231 cells assessed as increase in cleaved PARP expression at 125 nM by Western blot analysis; assay type: functional, cell-based; settings: time 1-24 hrs, TDE = time-dependent effect

O=C(/C=C/c1ccccc1)Nc1cc(-c2ccnc(N3CCC(CO)CC3)c2)ccn1
Kd [1]: 39.4 nM
Activity (MDA-MB-231 [2]): 15.2%
Activity [3]: Non-Toxic
Activity (A549 [4]): 59.06%
Activity (A549 [5]): 52%
Activity [6]: Non-Toxic
Activity (A549 [7]): 31.99%
Activity (A549 [8]): 46.39%
Activity (MDA-MB-231 [9]): Active
IC50 (A549 [10]): 196 nM
Activity (A549 [11]): 32.4%
Activity (A549 [12]): 8.76%
Activity (MDA-MB-231 [13]): 19.2%
Activity (MDA-MB-231 [14]): 1.81%
Cmax [15]: 8080 ng/mL
Activity (MDA-MB-231 [16]): Active
Activity (A549 [17]): 37.15%
Activity (MDA-MB-231 [18]): Dose-Dependent Effect
Activity [19]: Non-Toxic
Activity (MDA-MB-231 [20]): Active
Activity (A549 [21]): 22.9%
Vd/F [22]: 5.15 L/kg
Activity (A549 [23]): 12.89%
Activity (MDA-MB-231 [24]): 30.34%
Activity (A549 [25]): 2.31%
IC50 (HCC1937): 561 nM
inhibition [26]: Active
Activity (MDA-MB-231 [27]): Tde
